{"source": "ChEMBL document CHEMBL2390884", "about": "“Design, synthesis and antiproliferative activity studies of novel 1,2,3-triazole-dithiocarbamate-urea hybrids” (Eur J Med Chem, 2013)", "format_in_all_cases": "functional, cell-based", "key": {"[1]": {"test": "Cytotoxicity against human EC9706 cells after 72 hrs by MTT assay", "settings": "EC9706, 72 h"}, "MCF7": {"test_system": "MCF7", "test": "Cytotoxicity against human MCF7 cells after 72 hrs by MTT assay", "settings": "MCF7, 72 h"}, "SMMC-7721": {"test_system": "SMMC-7721", "test": "Cytotoxicity against human SMMC7721 cells after 72 hrs by MTT assay", "settings": "SMMC-7721, 72 h"}, "MGC-803": {"test_system": "MGC-803", "test": "Cytotoxicity against human MGC803 cells after 72 hrs by MTT assay", "settings": "MGC-803, 72 h"}}}
{"smiles": "CCN(C)C(=O)N1CCN(C(=S)SCc2cn(Cc3cc(OC)c(OC)c(OC)c3)nn2)CC1", "values": [{"measurement": "IC50", "setting": "[1]", "value": "> 128", "unit": "µM"}, {"measurement": "IC50", "setting": "MCF7", "value": 68.5, "unit": "µM"}, {"measurement": "IC50", "setting": "SMMC-7721", "value": "> 128", "unit": "µM"}, {"measurement": "IC50", "setting": "MGC-803", "value": 85.7, "unit": "µM"}]}
{"smiles": "Cc1ccc(Cn2cc(CSC(=S)N3CCN(C(=O)NC(C)C)CC3)nn2)cc1", "values": [{"measurement": "IC50", "setting": "[1]", "value": "> 128", "unit": "µM"}, {"measurement": "IC50", "setting": "MCF7", "value": 4.63, "unit": "µM"}, {"measurement": "IC50", "setting": "SMMC-7721", "value": "> 128", "unit": "µM"}, {"measurement": "IC50", "setting": "MGC-803", "value": 16.6, "unit": "µM"}]}
{"smiles": "CCNC(=O)N1CCN(C(=S)SCc2cn(Cc3ccc(C)cc3)nn2)CC1", "values": [{"measurement": "IC50", "setting": "[1]", "value": "> 128", "unit": "µM"}, {"measurement": "IC50", "setting": "MCF7", "value": "> 128", "unit": "µM"}, {"measurement": "IC50", "setting": "SMMC-7721", "value": "> 128", "unit": "µM"}, {"measurement": "IC50", "setting": "MGC-803", "value": 19.8, "unit": "µM"}]}
{"smiles": "CCNC(=O)N1CCN(C(=S)SCc2cn(Cc3ccc(OC)cc3)nn2)CC1", "values": [{"measurement": "IC50", "setting": "[1]", "value": "> 128", "unit": "µM"}, {"measurement": "IC50", "setting": "MCF7", "value": 97.6, "unit": "µM"}, {"measurement": "IC50", "setting": "SMMC-7721", "value": "> 128", "unit": "µM"}, {"measurement": "IC50", "setting": "MGC-803", "value": "> 128", "unit": "µM"}]}
{"smiles": "O=c1[nH]cc(F)c(=O)[nH]1", "note": "[FLUOROURACIL]", "values": [{"measurement": "IC50", "setting": "[1]", "value": 0.32, "unit": "µM"}, {"measurement": "IC50", "setting": "MCF7", "value": 7.33, "unit": "µM"}, {"measurement": "IC50", "setting": "SMMC-7721", "value": 26.7, "unit": "µM"}, {"measurement": "IC50", "setting": "MGC-803", "value": 7.14, "unit": "µM"}]}
{"smiles": "CC(C)(C)NC(=O)N1CCN(C(=S)SCc2cn(Cc3ccccc3F)nn2)CC1", "values": [{"measurement": "IC50", "setting": "[1]", "value": 87.8, "unit": "µM"}, {"measurement": "IC50", "setting": "MCF7", "value": 18.8, "unit": "µM"}, {"measurement": "IC50", "setting": "SMMC-7721", "value": "> 128", "unit": "µM"}, {"measurement": "IC50", "setting": "MGC-803", "value": 40.7, "unit": "µM"}]}
{"smiles": "COc1cc(Cn2cc(CSC(=S)N3CCN(C(=O)NC(C)C)CC3)nn2)cc(OC)c1OC", "values": [{"measurement": "IC50", "setting": "[1]", "value": "> 128", "unit": "µM"}, {"measurement": "IC50", "setting": "MCF7", "value": "> 128", "unit": "µM"}, {"measurement": "IC50", "setting": "SMMC-7721", "value": "> 128", "unit": "µM"}, {"measurement": "IC50", "setting": "MGC-803", "value": "> 128", "unit": "µM"}]}
{"smiles": "COc1cc(Cn2cc(CSC(=S)N3CCN(C(N)=O)CC3)nn2)cc(OC)c1OC", "values": [{"measurement": "IC50", "setting": "[1]", "value": "> 128", "unit": "µM"}, {"measurement": "IC50", "setting": "MCF7", "value": "> 128", "unit": "µM"}, {"measurement": "IC50", "setting": "SMMC-7721", "value": "> 128", "unit": "µM"}, {"measurement": "IC50", "setting": "MGC-803", "value": "> 128", "unit": "µM"}]}
{"smiles": "NC(=O)N1CCN(C(=S)SCc2cn(Cc3ccc(Cl)cc3)nn2)CC1", "values": [{"measurement": "IC50", "setting": "[1]", "value": "> 128", "unit": "µM"}, {"measurement": "IC50", "setting": "MCF7", "value": "> 128", "unit": "µM"}, {"measurement": "IC50", "setting": "SMMC-7721", "value": "> 128", "unit": "µM"}, {"measurement": "IC50", "setting": "MGC-803", "value": "> 128", "unit": "µM"}]}
{"smiles": "CC(C)NC(=O)N1CCN(C(=S)SCc2cn(Cc3ccc(Cl)cc3)nn2)CC1", "values": [{"measurement": "IC50", "setting": "[1]", "value": 25.6, "unit": "µM"}, {"measurement": "IC50", "setting": "MCF7", "value": "> 128", "unit": "µM"}, {"measurement": "IC50", "setting": "SMMC-7721", "value": "> 128", "unit": "µM"}, {"measurement": "IC50", "setting": "MGC-803", "value": 19.9, "unit": "µM"}]}
{"smiles": "CCNC(=O)N1CCN(C(=S)SCc2cn(Cc3ccccc3F)nn2)CC1", "values": [{"measurement": "IC50", "setting": "[1]", "value": 23.7, "unit": "µM"}, {"measurement": "IC50", "setting": "MCF7", "value": 5.76, "unit": "µM"}, {"measurement": "IC50", "setting": "SMMC-7721", "value": "> 128", "unit": "µM"}, {"measurement": "IC50", "setting": "MGC-803", "value": 2.83, "unit": "µM"}]}
{"smiles": "NC(=O)N1CCN(C(=S)SCc2cn(Cc3ccccc3F)nn2)CC1", "values": [{"measurement": "IC50", "setting": "[1]", "value": 43.1, "unit": "µM"}, {"measurement": "IC50", "setting": "MCF7", "value": "> 128", "unit": "µM"}, {"measurement": "IC50", "setting": "SMMC-7721", "value": "> 128", "unit": "µM"}, {"measurement": "IC50", "setting": "MGC-803", "value": 11.3, "unit": "µM"}]}
{"smiles": "CCNC(=O)N1CCN(C(=S)SCc2cn(Cc3cc(OC)c(OC)c(OC)c3)nn2)CC1", "values": [{"measurement": "IC50", "setting": "[1]", "value": "> 128", "unit": "µM"}, {"measurement": "IC50", "setting": "MCF7", "value": "> 128", "unit": "µM"}, {"measurement": "IC50", "setting": "SMMC-7721", "value": "> 128", "unit": "µM"}, {"measurement": "IC50", "setting": "MGC-803", "value": 101, "unit": "µM"}]}
{"smiles": "O=C(NCc1ccccc1)N1CCN(C(=S)SCc2cn(Cc3ccccc3F)nn2)CC1", "values": [{"measurement": "IC50", "setting": "[1]", "value": 38.1, "unit": "µM"}, {"measurement": "IC50", "setting": "MCF7", "value": 38.1, "unit": "µM"}, {"measurement": "IC50", "setting": "SMMC-7721", "value": "> 128", "unit": "µM"}, {"measurement": "IC50", "setting": "MGC-803", "value": 13.3, "unit": "µM"}]}
